Bounds are passed on as bounds.

In the experiment the target is T1, Aurora-2 (Homo sapiens, UniProt O14965).
T1 sequence (O14965 1-403): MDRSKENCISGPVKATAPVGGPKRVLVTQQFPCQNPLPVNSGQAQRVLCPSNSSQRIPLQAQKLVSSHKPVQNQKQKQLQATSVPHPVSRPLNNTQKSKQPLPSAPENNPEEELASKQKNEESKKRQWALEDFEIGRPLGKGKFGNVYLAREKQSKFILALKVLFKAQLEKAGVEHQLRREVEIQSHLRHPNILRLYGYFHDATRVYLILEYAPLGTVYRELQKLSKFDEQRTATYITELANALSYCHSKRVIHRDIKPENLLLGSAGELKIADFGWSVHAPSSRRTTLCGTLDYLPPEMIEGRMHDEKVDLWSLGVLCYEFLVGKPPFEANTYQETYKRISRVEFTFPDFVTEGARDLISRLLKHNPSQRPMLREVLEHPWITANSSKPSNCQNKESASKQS
Briefly: Inhibition assay of Aurora-2 activity (SPA technology). The experiment is classed as biochemical. Conditions: screened according to the methods of the pharmacology section; read-out: IC50 values for Aurora-2 inhibition. The protocol: The inhibiting activity and the potency of selected compounds is determined through a method of assay based on the use of the SPA technology (Amersham Pharmacia Biotech).
The assay consists of the transfer of radioactivity labelled phosphate moiety by the kinase to a biotinylated substrate. The resulting 33P-labelled biotinylated product is allowed to bind to streptavidin-coated SPA beads (biotin capacity 130 pmol/mg), and light emitted was measured in a scintillation counter.
Inhibition Assay of Aurora-2 Activity
After 60 minutes at room temperature incubation, reaction was stopped and biotinylated peptide captured by adding 100 μl of bead suspension.
Stratification: 100 μl of CsCl2 5 M were added to each well and let stand 4 hour before radioactivity was counted in the Top-Count instrument.
Experimental data were analyzed by the computer program GraphPad Prizm using the four parameter logistic equation: y=bottom+(top−bottom)/(1+10^((logIC50−x)*slope)) where x is the logarithm of the inhibitor concentration, y is the response; y starts at bottom and goes to top with a sigmoid shape.
Consider `Cn1cccc1C(=O)Nc1n[nH]c2sc(C(=O)NC(C)(C)c3ccccc3)cc12` [Compound 21, N-(1-methyl-1-phenylethyl)-3-{[(1-methyl-1H-pyrrol-2-yl)carbonyl]amino}-1H-thieno[2,3-c]pyrazole-5-carboxamide], for which the IC50 is less than 20 nM.
The result for `CC(C)(NC(=O)c1cc2c(NC(=O)c3cccs3)n[nH]c2s1)c1cccc(F)c1` [Compound 124, 3-[(Thiophene-2-carbonyl)-amino]-1H-thieno[2,3-c]pyrazole-5-carboxylic acid [1-(3-fluoro-phenyl)-1-methyl-ethyl]-amide] reads less than 20 nM; that for `CC(C)(NC(=O)c1cc2c(NC(=O)c3ccc(CNC4CCC4)cc3)n[nH]c2s1)c1ccccc1` [Compound 63, 3-(4-Cyclobutylaminomethyl-benzoylamino)-1H-thieno[2,3-c]pyrazole-5-carboxylic acid (1-methyl-1-phenyl-ethyl)-amide], less than 20 nM; that for `COc1cccc(C(C)(C)NC(=O)c2cc3c(NC(=O)c4ccc(N5CCOCC5)cc4)n[nH]c3s2)c1` [Compound 140, 3-(4-Morpholin-4-yl-benzoylamino)-1H-thieno[2,3-c]pyrazole-5-carboxylic acid [1-(3-methoxy-phenyl)-1-methyl-ethyl]-amide], less than 20 nM.
With `CC(C)(NC(=O)c1cc2c(NC(=O)c3ccc(CN4CCCC4)cc3)n[nH]c2s1)c1ccccc1` [Compound 37, 3-(4-Pyrrolidin-1-ylmethyl-benzoylamino)-1H-thieno[2,3-c]pyrazole-5-carboxylic acid (1-methyl-1-phenyl-ethyl)-amide], the IC50 was less than 20 nM.
Take `CC(C)(NC(=O)c1cc2c(NC(=O)c3ccc(CN4CCOCC4)cc3)n[nH]c2s1)c1ccccc1` [Compound 38, 3-(4-Morpholin-4-ylmethyl-benzoylamino)-1H-thieno[2,3-c]pyrazole-5-carboxylic acid (1-methyl-1-phenyl-ethyl)-amide]: the IC50 was less than 20 nM.
Consider `CC(C)(NC(=O)c1cc2c(NC(=O)c3ccc(CN4CCC4)cc3)n[nH]c2s1)c1ccccc1` [Compound 53, 3-(4-Azetidin-1-ylmethyl-benzoylamino)-1H-thieno[2,3-c]pyrazole-5-carboxylic acid (1-methyl-1-phenyl-ethyl)-amide], for which the IC50 is less than 20 nM.
On to `O=C(Nc1n[nH]c2sc(C(=O)N[C@H](CN3CCOCC3)c3ccccc3)cc12)c1cccs1` [Compound 15, N-[(1S)-2-morpholin-4-yl-1-phenylethyl]-3-[(thien-2-ylcarbonyl)amino]-1H-thieno[2,3-c]pyrazole-5-carboxamide], for which the IC50 was less than 20 nM.
With `CC(C)(NC(=O)c1cc2c(NC(=O)c3ccc(CN4CCC(F)CC4)cc3)n[nH]c2s1)c1ccccc1` [Compound 46] the figure was less than 20 nM; with `CC(C)(NC(=O)c1cc2c(NC(=O)c3ccc(N4CCOCC4)cc3)n[nH]c2s1)c1cccc(S(C)(=O)=O)c1` [Compound 147, 3-(4-Morpholin-4-yl-benzoylamino)-1H-thieno[2,3-c]pyrazole-5-carboxylic acid [1-(3-methanesulfonyl-phenyl)-1-methyl-ethyl]amide], less than 20 nM.
For the molecule `CC(C)(NC(=O)c1cc2c(NC(=O)c3ccc(CN4CCCCC4)cc3)n[nH]c2s1)c1ccccc1` [Compound 39, 3-(4-Piperidin-1-ylmethyl-benzoylamino)-1H-thieno[2,3-c]pyrazole-5-carboxylic acid(1-methyl-1-phenyl-ethyl)-amide], the IC50 was less than 20 nM.
On to `CC(C)(NC(=O)c1cc2c(NC(=O)c3ccc(N4CCOCC4)cc3)n[nH]c2s1)c1ccccc1F` [Compound 148, 3-(4-Morpholin-4-yl-benzoylamino)-1H-thieno[2,3-c]pyrazole-5-carboxylic acid [1-(2-fluoro-phenyl)-1-methyl-ethyl]-amide], for which the IC50 was less than 20 nM.
Regarding `CCC(CC)(NC(=O)c1cc2c(NC(=O)c3ccc(N4CCN(C)CC4)cc3)n[nH]c2s1)c1ccccc1` [Compound 33, N-(1-ethyl-1-phenylpropyl)-3-{[4-(4-methylpiperazin-1-yl)benzoyl]amino}-1H-thieno[2,3-c]pyrazole-5-carboxamide], the IC50 is less than 20 nM.
With `C[C@@H](NC(=O)c1cc2c(NC(=O)c3cccs3)n[nH]c2s1)c1ccc(F)cc1` [Compound 17, N-[(1R)-1-(4-fluorophenyl)ethyl]-3-[(thien-2-ylcarbonyl)amino]-1H-thieno[2,3-c]pyrazole-5-carboxamide], the IC50 is less than 20 nM.
Turning to `CC(C)(NC(=O)c1cc2c(NC(=O)c3ccc(N4CCS(=O)(=O)CC4)cc3)n[nH]c2s1)c1ccccc1` [Compound 144, 3-[4-(1,1-Dioxo-thiomorpholin-4-yl)-benzoylamino]-1H-thieno[2,3-c]pyrazole-5-carboxylic acid (1-methyl-1-phenyl-ethyl)-amide], the IC50 is less than 20 nM.
With `CC(C)(NC(=O)c1cc2c(NC(=O)c3ccc(CN4CCCCC4)cc3)n[nH]c2s1)c1ccc(F)cc1` [Compound 59, 3-(4-Piperidin-1-ylmethyl-benzoylamino)-1H-thieno[2,3-c]pyrazole-5-carboxylic acid [1-(4-fluoro-phenyl)-1-methyl-ethyl]-amide] the figure was less than 20 nM; with `CC(C)(NC(=O)c1cc2c(NC(=O)c3ccc(CN4CCN(C(C)(C)C)CC4)cc3)n[nH]c2s1)c1ccccc1` [Compound 57, 3-[4-(4-tert-Butyl-piperazin-1-ylmethyl)-benzoylamino]-1H-thieno[2,3-c]pyrazole-5-carboxylic acid (1-methyl-1-phenyl-ethyl)-amide], less than 20 nM; with `CC(C)(NC(=O)c1cc2c(NC(=O)c3ccc(N4CCOCC4)nc3)n[nH]c2s1)c1ccccc1` [Compound 136, 3-[(6-Morpholin-4-yl-pyridine-3-carbonyl)-amino]-1H-thieno[2,3-c]pyrazole-5-carboxylic acid (1-methyl-1-phenyl-ethyl)-amide], less than 20 nM.
With `CC(C)(NC(=O)c1cc2c(NC(=O)c3cccs3)n[nH]c2s1)c1ccc(F)cc1` [Compound 151, 3-[(Thiophene-2-carbonyl)-amino]-1H-thieno[2,3-c]pyrazole-5-carboxylic acid [1-(4-fluoro-phenyl)-1-methyl-ethyl]-amide] the figure was less than 20 nM; with `CC(C)(NC(=O)c1cc2c(NC(=O)c3ccc(CN4CCNCC4)cc3)n[nH]c2s1)c1ccccc1` [Compound 47, 3-(4-piperazin-1-ylmethyl-benzoylamino)-1H-thieno[2,3-c]pyrazole-5-carboxylic acid (1-methyl-1-phenyl-ethyl)-amide], less than 20 nM; with `O=C(Nc1n[nH]c2sc(C(=O)N[C@H](CN3CCCC3)c3ccccc3)cc12)c1cccs1` [Compound 19, N-[(1S)-1-phenyl-2-pyrrolidin-1-ylethyl]-3-[(thien-2-ylcarbonyl)amino]-1H-thieno[2,3-c]pyrazole-5-carboxamide], less than 20 nM.
Take `CC(C)NCc1ccc(C(=O)Nc2n[nH]c3sc(C(=O)NC(C)(C)c4ccccc4)cc23)cc1` [Compound 40, 3-[4-(Isopropylamino-methyl)-benzoylamino]-1H-thieno[2,3-c]pyrazole-5-carboxylic acid (1-methyl-1-phenyl-ethyl)-amide]: the IC50 was less than 20 nM.
With `CC[C@@H](NC(=O)c1cc2c(NC(=O)c3ccc(N4CCOCC4)cc3)n[nH]c2s1)c1ccccc1` [Compound 4, 3-[(4-morpholin-4-ylbenzoyl)amino]-N-[(1R)-1-phenylpropyl]-1H-thieno[2,3-c]pyrazole-5-carboxamide] the figure was less than 20 nM; with `CC(C)(NC(=O)c1cc2c(NC(=O)c3ccc(N4CCOCC4)cc3)n[nH]c2s1)c1ccncc1` [Compound 138, 3-(4-Morpholin-4-yl-benzoylamino)-1H-thieno[2,3-c]pyrazole-5-carboxylic acid (1-methyl-1-pyridin-4-yl-ethyl)-amide], less than 20 nM.
Take `O=C(Nc1n[nH]c2sc(C(=O)N[C@H](CN3CCOCC3)c3ccccc3)cc12)c1ccc(N2CCOCC2)cc1` [Compound 6, 3-[(4-morpholin-4-ylbenzoyl)amino]-N-[(1S)-2-morpholin-4-yl-1-phenylethyl]-1H-thieno[2,3-c]pyrazole-5-carboxamide]: the IC50 was less than 20 nM.
On to `CC(C)(NC(=O)c1cc2c(NC(=O)c3ccc(CNC4CC4)cc3)n[nH]c2s1)c1ccccc1` [Compound 62, 3-(4-Cyclopropylaminomethyl-benzoylamino)-1H-thieno[2,3-c]pyrazole-5-carboxylic acid (1-methyl-1-phenyl-ethyl)-amide], for which the IC50 was less than 20 nM.
With `Cn1cccc1C(=O)Nc1n[nH]c2sc(C(=O)NC3(c4ccccc4)CC3)cc12` [Compound 22, 3-{[(1-methyl-1H-pyrrol-2-yl)carbonyl]amino}-N-(1-phenylcyclopropyl)-1H-thieno[2,3-c]pyrazole-5-carboxamide], the IC50 was less than 20 nM.

What is called IC50 is the concentration needed to halve the response being measured.

The record behind these values is patent US8481584B2, “1H-thieno[2,3-c]pyrazole derivatives useful as kinase inhibitors” (Nerviano Medical Sciences S.R.L., priority 2004, dated 2013).
